Measurements: patent US20130090333A1, “BENZOXAZINE DERIVATIVES AS CRAC MODULATORS” (Hoffmann-La Roche Inc., priority 2011, published 2013)

Key:
Format in all cases: cell-based
PBMC from healthy donors = experiment: [3H]Thymidine Incorporation (MLR); conditions: mixed PBMC responder/stimulator 1:1, 4 days
Method: [3H]Thymidine Incorporation (MLR)
Freshly isolated PBMC from healthy donors were either used as responders, where the cells were pre-treated with various concentrations of inhibitors (as indicated in the figure legends), or stimulators where the cells were pre-treated with 0.05 mg/ml Mitomycin C for 20 min. Stimulator cells were washed twice with RPMI 1640 and mixed with responder PBMCs at a 1:1 ratio, totaling 2×10^5 cells/well in quadruplicate in a 96-well U-bottom tissue culture plates (Falcon). Cells were cultured in complete RPMI 1640 (supplemented with 10% FBS, 1 mM sodium pyruvate, and 100 IU/ml penicillin-streptomycin, 0.01M HEPES and 55 μM β-ME [Invitrogen]) for 4 days at 37° C. in 5% CO2. Cultures were pulsed with 0.5 μCi [3H]-thymidine (PerkinElmer) during the last 6 hrs of culture. Cells were harvested on filter plates using a 96-well plate harvester (PerkinElmer), and the incorporation of [3H]-thymidine was measured as cpm in a Topcount Microplate scintillation counter (PerkinElmer). Stimulator cells alone or responder cells alone were set up in parallel as controls.

[1] = tested on: T cell IL-2 production in human whole blood; experiment: Human Whole Blood Assay (inhibition of T cell IL-2 production); conditions: T-cell, 10 μM Thapsigargin overnight, plasma IL-2 by AlphaLISA, read-out: HWB
Method: Inhibition of T cell IL-2 production CRAC compounds were tested in human whole blood from normal donors. 200 μl of human whole blood was aliquoted into each well of a round bottom 96 well plate. Concentration-response curves were generated for test compounds and CsA (as controls) by performing serial dilutions of the compounds and incubating each concentration in a single well for 30 min (experiment was performed in triplicate). Following incubation, the blood was stimulated with 10 μM Thapsigargin (SIGMA) overnight at 37° C. IL-2 concentrations in the plasma were determined by AlphaLISA IL-2 assay (Perkin Elmer). Data analysis was performed using GraphPad PRISMS.

[2] = tested on: IL-2 production in Jurkat cell (ATCC); experiment: Jurkat IL-2 Production Assay; conditions: Homo sapiens, Jurkat cells, 18-20 h incubation, serum/stimulant variant (1% FBS/PHA or 30% FBS/PMA+ionomycin) not given
Method: Jurkat IL-2 Production Assay Cell: Jurkat cell (ATCC) was grown in RPMI 1640 with 10% FBS and 1% penicillin/streptomycin. The cell density was kept at 1.2˜1.8×10^6/mL in culture flask before seeding into culture plate, and the cell density in the plate was 0.5×10^6/2004/well. Culture Media: RPMI 1640 with 1% FBS or 30% FBS for high serum assay. Test Compound: Serial dilution was done in 100% DMSO, and intermediate dilution was done with RPMI 1640 medium with 1% FBS. The DMSO final concentration in culture well was 0.25%. Stimulant: PHA (Sigma#L9017-10MG) was used for the assay with 1% FBS in culture medium, and added after 10 minutes exposure of cell to compound/DMSO. The PHA final concentration in culture well was 5 μg/mL. PMA (Sigma# P-8139 5MG)/Ionomycin (Sigma# I0634-5MG) was used for the assay with 30% FBS in culture medium, and added at same time point as the 1% FBS culture assay. The final concentration of PMA was 50 ng/mL, and Ionomycin final concentration was 500 ng/mL. Incubation: At 37° C. with 5% CO2 and 95% humidity for 18 h˜20 h. IC50: IC50 was calculated with the data analysis software XLfit4, General Pharmacology model 251.

CCn1nc(C(F)(F)F)cc1-c1ccc2c(c1)OCC(c1c(F)cccc1F)N2 (stereo not drawn) [Example 6, 3-(2,6-Difluoro-phenyl)-7-(2-ethyl-5-trifluoromethyl-2H-pyrazol-3-yl)-3,4-dihydro-2H-benzo[1,4]oxazine]
IC50 (PBMC from healthy donors): 110 nM
IC50 [1]: 510 nM
IC50 [2]: 20 nM

CCn1nc(-c2cccnc2)cc1-c1ccc2c(c1)OCC(c1c(F)cccc1F)N2 (stereo not drawn) [Example 7, 3-(2,6-Difluoro-phenyl)-7-(2-ethyl-5-pyridin-3-yl-2H-pyrazol-3-yl)-3,4-dihydro-2H benzo[1,4]oxazine]
IC50 (PBMC from healthy donors): 330 nM
IC50 [1]: 320 nM
IC50 [2]: 70 nM

Cc1sc(-c2cccnc2)nc1-c1ccc2c(c1)OCC(c1c(F)cccc1F)N2 (stereo not drawn) [Example 12, 3-(2,6-Difluoro-phenyl)-7-(5-methyl-2-pyridin-3-yl-thiazol-4-yl)-3,4-dihydro-2H-benzo[1,4]oxazine]
IC50 (PBMC from healthy donors): 190 nM
IC50 [1]: 430 nM
IC50 [2]: 30 nM

CCc1sc(-c2cccnc2)nc1-c1ccc2c(c1)OCC(c1c(F)cccc1F)N2 (stereo not drawn) [Example 14, 3-(2,6-Difluoro-phenyl)-7-(5-ethyl-2-pyridin-3-yl-thiazol-4-yl)-3,4-dihydro-2H-benzo[1,4]oxazine]
IC50 (PBMC from healthy donors): 100 nM
IC50 [1]: 520 nM
IC50 [2]: 30 nM

CCc1sc(-c2cnccn2)nc1-c1ccc2c(c1)OCC(c1c(F)cccc1F)N2 (stereo not drawn) [Example 16, 3-(2,6-difluorophenyl)-7-(5-ethyl-2-(pyrazin-2-yl)thiazol-4-yl)-3,4-dihydro-2H-benzo[b][1,4]oxazine]
IC50 (PBMC from healthy donors): 180 nM
IC50 [1]: 870 nM
IC50 [2]: 20 nM

CCc1sc(-c2ccncc2)nc1-c1ccc2c(c1)OCC(c1c(F)cccc1F)N2 (stereo not drawn) [Example 17, 3-(2,6-Difluoro-phenyl)-7-(5-ethyl-2-pyridin-4-yl-thiazol-4-yl)-3,4-dihydro-2H-benzo[1,4]oxazine]
IC50 (PBMC from healthy donors): 440 nM
IC50 [1]: 320 nM
IC50 [2]: 20 nM

CCc1sc(-c2cc(C)on2)nc1-c1ccc2c(c1)OCC(c1c(F)cccc1F)N2 (stereo not drawn) [Example 20, 3-(2,6-difluorophenyl)-7-(5-ethyl-2-(5-methylisoxazol-3-yl)thiazol-4-yl)-3,4-dihydro-2H-benzo[b][1,4]oxazine]
IC50 (PBMC from healthy donors): 430 nM
IC50 [1]: 360 nM
IC50 [2]: 30 nM
